Several values for one entry are separate records, joined by “and”; a condition that tells them apart may be missing. Identical values can stand only once. Like-named read-outs stand apart in the source and are kept apart here.
Assays:
dermatophyte isolates = assay: Susceptibility of dermatophytes, results stated over all isolates; type: cell-based; details: read-out: mean MICs across all the isolates
Protocol: (§1) Isolates were tested using the method described in the National Committee for Clinical Laboratory Standards (NCCLS) document M38-P for filamentous fungi, with dermatophyte specific modifications described by Fernández-Torres et al, Current topics in Medical Mycology, 14-19 Feb. 1999.
Five dermatophyte isolates were, namely; T. rubrum, T. mentagrophytes, T. tonsurans, M. canis and M. gypseum, all of which produce lipases and some, phospholipase. These isolates were tested by the broth microdilution method according to NCCLS document M38-P, for activity against selected antifungal agents. In addition, ten randomly selected isolates of T. tonsurans were also tested. All isolates were maintained on SDA at 28° C. Candida parapsilosis (ATCC 20019) was used as the reference control is organism. […]
Fungal cultures were subcultured onto Potato Dextrose Agar and grown at 28° C. for 7-10 days. […] Inoculum quantification was performed by plating 100 μl of the 1:1000 dilution of the adjusted inoculum on SDA plates, incubated at 28° C., and after 7 days of incubation, the colonies were counted.
Testing was based on NCCLS M38-P document for testing filamentous moulds. […] Plates were incubated at 28° C. for 7 days, and read at 3 days and 7 days of incubation. […]
Growth in microtitre trays were read by visual inspection by using an illuminated-reversed mirror. […]

M. gypseum = assay: Susceptibility of dermatophytes, broth microdilution NCCLS M38-P; type: cell-based; details: for MIC: Nannizzia gypsea
Protocol: as §1
(§2) Five dermatophyte isolates were, namely; T. rubrum, T. mentagrophytes, T. tonsurans, M. canis and M. gypseum, all of which produce lipases and some, phospholipase. These isolates were tested by the broth microdilution method according to NCCLS document M38-P, for activity against selected antifungal agents. In addition, ten randomly selected isolates of T. tonsurans were also tested. All isolates were maintained on SDA at 28° C. Candida parapsilosis (ATCC 20019) was used as the reference control is organism.
(§3) The microdilution plates used were a single lot of RPMI 1640 basal medium (JRH bioScience Inc. Lenexa, Kans., USA) with L-glutamine and without sodium bicarbonate, buffered to pH 7.0, at 25° C., with 0.165 M (MOPS) morpholinepropanesulfonic acid (Sigma).
(§4) Powdered drugs were dissolved in 100% dimethyl sulfoxide (DMSO), at concentrations 100 times higher than the final test concentration. All compounds were prepared in 100% (DMSO). For ITRA and TRB, two-fold drug dilutions were prepared in 100% DMSO at 100 times the final concentration, followed by further dilution 1:50 in RPMI medium, to yield 2× the final strength required for the test.
(§5) Fungal cultures were subcultured onto Potato Dextrose Agar and grown at 28° C. for 7-10 days. Fungal suspensions were covered with 5 ml of distilled water, and then colonies were scraped off with cotton tipped swabs. The resulting mixture of conidia and hyphae elements was withdrawn, transferred to a sterile tube and then vortexed with glass beads. After the particles settled, the upper homogeneous suspension was collected and its density adjusted by a densitometer to a 0.5 McFarland standard at the wavelength of 530 nm (80-85% transmittance). These stock suspensions were then diluted 1:50 with RPMI medium to obtain final working inoculum concentration ranging from 0.3×10^4 to 9×10^4 CFU/ml. Inoculum quantification was performed by plating 100 μl of the 1:1000 dilution of the adjusted inoculum on SDA plates, incubated at 28° C., and after 7 days of incubation, the colonies were counted.
(§6) Testing was based on NCCLS M38-P document for testing filamentous moulds. Testing was carried out in sterile 96-well flat bottomed microtitre plate. Columns 1 and 3 to 12 were filled with 100 μl of RPMI medium, leaving column 2 unfilled. Columns 1, 2 and 3 were filled with 100 μl of 2× drug concentration. Serial dilutions were then made by transferring 100 μl from column 3 to each column up to column 11, and 100 μl from column 11 was discarded. Column 12 served as drug free growth control. Finally, 100 μl of inoculum suspension was added to all wells except column 1, which acted as sterility control (Columns 1 and 12 served as sterility and growth control respectively). Plates were incubated at 28° C. for 7 days, and read at 3 days and 7 days of incubation. All testing was performed in duplicate, on three separate occasions.
(§7) Growth in microtitre trays were read by visual inspection by using an illuminated-reversed mirror. Growth in each well was compared with the “growth control” drug free well. The MIC end point for all the drugs was chosen to be the first well with 100% growth inhibition (i.e. the lowest drug concentration inhibiting growth).

M. canis = assay: as above; type: cell-based; details: for MIC: Microsporum canis
Protocol: as §1, §2, §3, §4, §5, §6, §7

T. rubrum = assay: as above; type: cell-based; details: for MIC: Trichophyton rubrum
Protocol: as §1, §2, §3, §4, §5, §6, §7

T. tonsurans = assay: as above; type: cell-based; details: for MIC: Trichophyton tonsurans
Protocol: as §1, §2, §3, §4, §5, §6, §7

[1] = system: C. albicans (ATCC10231) phospholipases; assay: Inhibition of C. albicans phospholipases; type: biochemical

SMILES	MIC (dermatophyte isolates) [µg/mL]	MIC Range, M. gypseum (M. gypseum; 100% growth inhibition, 28° C.) [µg/mL]	MIC (M. gypseum; 100% growth inhibition, 28° C., read-out: MIC GM, M. gypseum) [µg/mL]	MIC (M. gypseum; 100% growth inhibition, 28° C., read-out: MIC Mean, M. gypseum) [µg/mL]	MIC Range, M. canis (M. canis; 100% growth inhibition, 28° C.) [µg/mL]	MIC (M. canis; 100% growth inhibition, 28° C., read-out: MIC GM, M. canis) [µg/mL]	MIC (M. canis; 100% growth inhibition, 28° C., read-out: MIC Mean, M. canis) [µg/mL]	MIC Range, T. rubrum (T. rubrum; 100% growth inhibition, 28° C.) [µg/mL]	MIC (T. rubrum; 100% growth inhibition, 28° C., read-out: MIC GM, T. rubrum) [µg/mL]	MIC (T. rubrum; 100% growth inhibition, 28° C., read-out: MIC Mean, T. rubrum) [µg/mL]	MIC Range, T. tonsurans (T. tonsurans; 100% growth inhibition, 28° C.) [µg/mL]	MIC (T. tonsurans; 100% growth inhibition, 28° C., read-out: MIC GM, T. tonsurans) [µg/mL]	MIC (T. tonsurans; 100% growth inhibition, 28° C., read-out: MIC Mean, T. tonsurans) [µg/mL]	inhibition of C. albicans (ATCC10231) phospholipases, in words [1]	MIC (M. gypseum; Table 9, read-out: MIC M. gypseum)	MIC (M. canis; Table 9, read-out: MIC M. canis)	MIC (T. rubrum; Table 9, read-out: MIC T. rubrum)	MIC (T. tonsurans; Table 9, read-out: MIC T. tonsurans)
CCCC[N+](CCCC)(CCCC)CCCCCCCCCCCC[N+](CCCC)(CCCC)CCCC [Compound 3, 1,12-bis(tributylammonium)do-decane dibromide]	2.62 to 7.61	1.9 to 7.6	3.8	4.75	3.8 to 7.6	6.03	6.33	3.8 to 7.6	5.37	5.7	1.9 to 7.6	3.38	3.8	inhibits				
CCCC[N+](CCCC)(CCCC)CCCCCCCCCCCC[N+](CCCC)(CCCC)CCCC [1,12-Bis-(tributylammonium)dodecane dichloride]															3.8 µg/mL and 6.3 µM	5.7 µg/mL and 9.4 µM	5.7 µg/mL and 9.4 µM	3.8 µg/mL and 6.2 µM

— US7947854B2, “Bis-cationic compounds and use thereof” (The University of Sydney, priority 2003, dated 2011)
